The supplement of paper PMC11451515

Test system: P12-Ichikawa
Experiment: cell viability relative to DMSO control; higher = less cytotoxic
Settings: 48 h
How it was run: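 NOMO1 or SEM cells were plated at 500 cells/well and P12-Ichikawa cells at 1000 cells/well in 1536-well plates (5 μl), after each leukemia line had been adapted for at least four passages in each medium. Pin dosing delivered library compounds in DMSO at 11 threefold concentrations, 47 μM to 0.79 nM. CellTiter-Glo One luminescence was read after 48 h at 37°C. Viability is reported as a per-plate percentage of DMSO wells, with cell-free wells as background.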

CC(C)(C)[C@]1(O)C[C@@H]2OC(=O)C[C@@]23C(=O)O[C@@H]2OC(=O)[C@H](O)C213 (stereo partly drawn)
cell viability [%]
Settings	HPLM + 10% dialyzed FBS	RPMI 5 mM glucose + 10% FBS	RPMI 5 mM glucose + 10% dialyzed FBS
0.000781 µM	121	128	120
0.00234 µM	127	121	129
0.00702 µM	121	113	124
0.0211 µM	126	136	130
0.0632 µM	118	118	119
0.19 µM	112	122	116
0.569 µM	118	118	119
1.71 µM	108	105	105
5.12 µM	109	116	118
15.4 µM	114	108	116
46.1 µM	106	113	112
